Source: US12239686B2, “Immune checkpoint inhibitor combinations” (LYTIX BIOPHARMA AS, priority 2014, dated 2025)
Non-standard residues stand in square brackets, D forms with d. Residues, ends and D or L forms follow the SMILES beside them. Dip = N[C@H](C(=O)O)C(c1ccccc1)c1ccccc1

What was measured:
human red blood cells = assay: Haemolytic activity in vitro; format: cell-based; details: 1 h, 37° C.
Protocol: Freshly collected human blood was centrifuged at 1500 rpm for 10 minutes in order to isolate the red blood cells. The red blood cells (RBC) were washed three times with PBS [35 mM phosphate buffer with 150 mM NaCl, pH 7.4] by centrifugation at 1500 rpm for 10 minutes, and adjusted to 10% haematocrit with PBS. LTX-315 solutions were added to give a final concentration range of the peptide from 1200 μg/ml to 1 μg/ml and an RBC concentration of 1%. The resulting suspension was incubated with agitation for one hour at 37° C. After incubation the suspension was centrifuged at 4000 rpm for 5 minutes, and the released haemoglobin were monitored by measuring the absorbance of the supernatant at 405 nm. PBS was used as negative control and assumed to cause no haemolysis. 0.1% Triton was used as positive control and assumed to cause complete haemolysis.
Released haemoglobin was monitored by measuring the absorbance of the supernatant at 405 nm, and percent haemolysis was calculated by the equation: […]
LTX-315 concentration corresponding to 50% haemolysis (ECs) was determined from a dose-response curve.

[1] = test system: murine A20 B cell lymphoma cells; assay: Re-challenge with A20 cells in mice with complete tumour regression; format: in vivo
Protocol: Methods: Female Balb-c mice (n=4), previously treated with LTX-315, 1 mg) or (n=9); previously treated with LTX-315 0.5 or 1 mg) were re-inoculated (s.c. in the abdominal area) with either murine A20 B cell lymphoma cells or CT26WT colon carcinoma cells (5 million) respectively 6 weeks following initial treatment with LTX-315. Tumour growth was monitored for up to 36 days following re-inoculation.

A375 cells [2] = assay: Confocal microscopy, fluorescence-labeled peptide internalization; format: cell-based, human; details: 1.5 and 3 μM
Protocol: Fixed cells, fluorescence-labeled peptide-Subconfluential A375 cells were seeded at 8,000 cells/well as above, and transfected on the second day using the Lipofectamine LTX with Plus transfection reagents (Invitrogen) following the manufacturer's protocol. The mitochondria were labeled using the pDsRed2-Mito, and the nucleus was labeled using the GFP-Histon2B plasmid (Imaging Platform, University of Tromsø). A day after transfection, cells were washed twice with serum-free RPMI, and treated at different concentration and incubation periods with LTX-315 Pacific Blue or LTX-328 Pacific Blue.
Control cells were treated with unlabeled LTX-315 and also with serum-free RPMI only. After incubation, cells were fixed with 4% paraformaldehyde in PBS, and the wells were covered with Prolong Gold antifade (Invitrogen). Cells were further analyzed by use of a Leica TCS SP5 confocal microscope, with a […] objective. Pacific Blue, GFP and Ds Red were excited using UV, with 488 and 561 lasers, and fluorescence channels were sequentially detected using the following band passes: UV: 420-480 nm (with attenuation), 488: 501-550 nm and 561: 576-676 nm.

A375 cells [3] = assay: Release of ATP, luciferase assay of supernatant; format: cell-based, human; details: concentration-dependent
Protocol: The supernatant of LTX-315-treated A375 cells was analyzed using an Enliten ATP luciferase assay kit (Promega, USA). Cells were then seeded as with an ROS assay, and treated with LTX-315 in different incubation times, from 1 to 15 minutes with two parallels, which was then conducted three times. Negative controls were untreated A375 cells exposed to serum-free media alone. Samples were diluted at 1:50 and 1:100, and analyzed with a Luminoscan RT luminometer according to the manufacturer's protocol.

HL-60/ADR = assay: In vitro cytotoxic activity, MTS assay; resistance index; format: cell-based, human; details: HL-60/ADR vs sensitive HL-60 (doxorubicin resistance)
Protocol: Tumor cells were grown as adherent monolayers or as suspensions at 37° C. in a humidified atmosphere (5% CO2, 95% air). The culture medium was RPMI 1640 containing 2 mM L-glutamine (Lonza, Belgium) and supplemented with 10% fetal bovine serum (FBS, Lonza). For experimental use, the adherent cells were detached from the culture flask by a 5-minute treatment with trypsin-versene (Lonza), diluted in Hanks' medium without calcium or magnesium (Lonza) and neutralized by addition of complete culture medium. Cells were counted in a hemocytometer and their viability was assessed by 0.25% trypan blue exclusion.
Tumor cells were plated in 96-well flat-bottom microtitration plates (Nunc, Dutscher, Brumath, France) and incubated at 37° C. for 24 hours before treatment in 190 μl of drug-free culture medium supplemented or not with 10% FBS for adherent or suspension growing cell lines, respectively.
The adherent cell lines were washed once with 200 μl FBS-free culture medium before treatment. Tumor cells were incubated for 4 hours with 10 concentrations of compounds in ¼ dilution step with a top dose of 400 μM (range 4×10^−4 to 4×10^−10 M), with 1% (final concentration) Triton X-100 as positive control and FBS-free culture medium as negative control. The cells (190 μl) were incubated in a 200 μl final volume of FBS-free culture medium containing test substances at 37° C. under 5% CO2.
Three independent experiments were performed, each concentration being tested in quadruplicate. Control cells were treated with vehicle alone. At the end of treatments, the cytotoxic activity was evaluated by a MTS assay (see § 3.3).
Like MTT, MTS is bioreduced by cells into a formazan product that is directly soluble in culture medium without processing, unlike MTT.
At the end of the cells treatment, 40 μl of a 0.22 μm filtered freshly combined solution of MTS (20 ml at 2 mg/ml, Ref G1111, Batch 235897, Exp 03/2009, Promega, Charbonnières, France) and PMS (1 ml at 0.92 mg/ml, Ref P9625, Batch 065K0961, Sigma) in Dulbecco's Phosphate Buffered Saline (DPBS, Ref 17-513Q, Batch 6MB0152, Cambrex), were added in each well. Culture plates were incubated for 2 h at 37° C. Absorbency (OD) were measured at 490 nm in each well using VICTOR^3TM 1420 multilabeled counter (Wallac, PerkinElmer, Courtaboeuf, France).
[formula] • The OD values are the mean of 4 experimental measurements. • IC50: drug concentration to obtain a 50% inhibition of cell proliferation.
The dose-response curves were plotted using XLFit 3 (IDBS, United Kingdom). The IC50 determination values were calculated using the XLFit 3 software from semi-log curves. Individual IC50 determination values as well as mean and SD values were generated.
Resistance index was calculated using the following formula: […]
Resistance index was calculated for each compound for each couple of sensitive and resistant cell lines. Individual resistance index was calculated when IC50 values of both sensitive and corresponding resistant cell lines were determined within same experiment. In addition, resistance index was also calculated ratio of mean IC50 values obtained during three independent experiments.

NCCCC[C@H](NC(=O)[C@@H](NC(=O)[C@H](Cc1c[nH]c2ccccc12)NC(=O)[C@H](CCCCN)NC(=O)[C@H](CCCCN)NC(=O)[C@H](Cc1c[nH]c2ccccc12)NC(=O)[C@H](Cc1c[nH]c2ccccc12)NC(=O)[C@H](CCCCN)NC(=O)[C@@H](N)CCCCN)C(c1ccccc1)c1ccccc1)C(N)=O [LTX-315, K-K-W-W-K-K-W-Dip-K-NH2] (H-KKWWKKW[Dip]K-NH2)
Mean cell death (%) (human red blood cells; LTX-315 1 μg/ml): 0.0%
Mean cell death (%) (human red blood cells; LTX-315 10 μg/ml): 0.6%
Mean cell death (%) (human red blood cells; LTX-315 50 μg/ml): 1.6%
Mean cell death (%) (human red blood cells; LTX-315 100 μg/ml): 3.6%
tumour growth after re-inoculation compared with control animals ([1]; 4 mice previously treated with LTX-315 1 mg, re-inoculated 6 weeks later, P<0.006): Significant inhibition
mice with complete tumour regression after re-inoculation ([1]; of 4 re-inoculated mice): 3 mice
animals with relapse after re-inoculation ([1]; of 4 re-inoculated mice, 3 weeks later): 1 animal
internalization of Pacific Blue-labeled peptide (A375 cells [2]): showed an accumulation around the mitochondria after 30 minutes of incubation but was not detected in the cell nucleus
extracellular ATP release (A375 cells [3]): ATP was detected in the supernatant as early as after 5 minutes of treatment
Resistance index (RI) (HL-60/ADR): 1.45
